The values that follow come from paper PMC9413440, “An Iterative Approach Guides Discovery of the FabI Inhibitor Fabimycin, a Late-Stage Antibiotic Candidate with In Vivo Efficacy against Drug-Resistant Gram-Negative Infections” (ACS Central Science, 2022).

The test system of one data set is S. aureus ATCC 29213. The data set is classed as cell-based, Staphylococcus aureus. The protocol:
Selection of resistant mutants
Resistant mutants were generated using the large inoculum method. Briefly, S. aureus 29213, E. coli MG1655, and A. baumannii 19606 (~1 x 1010 CFUs) was plated on 100-mm plates (E. coli and A. baumannii) or 150-mm plates (S. aureus) of MH agar containing either 128, 64, or 32 µg/mL fabimycin (for gram-negatives) or 0.125, 0.062, and 0.031 µg/mL fabimycin (for S. aureus). Plates were incubated at 37 °C for 48 h and counted for the presence of colony forming units.
Glycerol stocks of selected colonies were made, and resistant colonies confirmed by growing on agar plates containing the same concentration of fabimycin that they were generated at. […]
Forward 5’-GGG-GCC-AGC-GTT-TCT-TTT-TC-3‘ Parker, 20203
Reverse 5’-AAA-CAT-GGA-GAC-GGT-GCT-GG
Forward 5’-GTG-AGA-TCG-GCA-TGA-CAC-AA-3’ Lin, 20179
Reverse 5’-CTG-AAG-TCC-GCT-ACC-GTT-AT-3’
Compound stability in mammalian plasma […]
Each drug is tested […]
in duplicate. Compounds were diluted from 10 mM DMSO stocks to 1 µM in a 100 mM pH 7.4 phosphate buffer and incubated at 37 °C with 0.5 mg/mL of human, rat, or mouse plasma (BioreclamationIVT, Baltimore, MD). […]
Compound plasma protein binding […]
The standard assay involves equilibrium dialysis, in which compound is allowed to equilibrate between a protein-containing compartment from a protein-free compartment. Each

The subject of data set [1] is Vancomycin-resistant Enterococcus (VRE). Put plainly: MIC, vancomycin-resistant Enterococcus strains. The data set is classed as cell-based. As to the method:
II. Materials and Methods for Biological Experiments
S. aureus ATCC 29213 and E. coli MG1655 were obtained from the American Type Culture Collection (ATCC). E. coli BW25113 and E. coli JW5503 were obtained from the Keio Collection. AR-bank strains were obtained from the Centers for Disease Control and Prevention and FDA Antibiotic Resistance Isolate Bank.
Antimicrobial susceptibility tests
Susceptibility testing was performed in biological triplicate, unless noted otherwise, using the micro-dilution broth method as outlined by the Clinical and Laboratory Standards Institute. Bacteria were cultured with cation-adjusted Mueller Hinton broth (Sigma Aldrich, catalogue number: 90922). […]
NH3: m/z 391.2 → 171.0. Fabimycin: m/z 405.3 → 145.3. Power analysis was not used to determine the number of replicates. Error bars represent the standard error of the mean of three biological replicates. All compounds evaluated in biological assays were ≥95% pure.

Another data set concerns human red blood cells. Put plainly: Human red blood cell hemolysis. The data set is classed as cell-based. As to conditions: 200 μM; 2 hours at 37 °C. The protocol:
drug is tested in duplicate. Compounds were diluted from 10mM DMSO stocks to 5 µM in mouse or human plasma (BioreclamationIVT, Baltimore, MD). The dialysis plate (Rapid Equilibrium Dialysis (RED) device; Thermo Scientific, Waltham, MA) was prepared by adding pH 7.4 phosphate buffer to one chamber of the RED device and dosing solution to the other chamber. The plate was sealed with an adhesive tape and incubated at 37 °C while shaking for 4 hours. Equal volumes of post-dialysis samples were removed from both the plasma and the buffer chambers into separate microcentrifuge tubes, and equal volumes (100µL) of fresh phosphate buffer and plasma were added to the tubes, respectively. […] Percentage binding is determined using the following equation: Binding % = (Concentration of test compound in plasma at equilibrium (Cpe) – Concentration of test compound in buffer at equilibrium (Cb)) / Cpe x 100. […]
Next, 10 µL of washed erythrocyte suspension was added to each tube and sealed. […] Absorbance was measured at 540 nm. […]
from Charles River were used. […] No additional randomization was used to allocate the experimental groups; blinding was not performed for subsequent quantitation.
The MTD of a single dosage of a given compound was determined before evaluating the MTD of multiple dosages. […]
weeks (single dose). The single-dose MTDs were determined first. […]

Data set [2] relates to A. baumannii clinical isolates (n=100). Put plainly: MIC50/MIC90, clinical isolate panel. As to conditions: Acinetobacter baumannii. The data set is classed as cell-based.
The target of the next data set is hERG ion channel (Homo sapiens, UniProt Q12809). Put plainly: hERG activity. On the technique in general: hERG is a cardiac potassium channel; its block is linked to QT prolongation.
Sequence of hERG ion channel (Q12809 whole entry): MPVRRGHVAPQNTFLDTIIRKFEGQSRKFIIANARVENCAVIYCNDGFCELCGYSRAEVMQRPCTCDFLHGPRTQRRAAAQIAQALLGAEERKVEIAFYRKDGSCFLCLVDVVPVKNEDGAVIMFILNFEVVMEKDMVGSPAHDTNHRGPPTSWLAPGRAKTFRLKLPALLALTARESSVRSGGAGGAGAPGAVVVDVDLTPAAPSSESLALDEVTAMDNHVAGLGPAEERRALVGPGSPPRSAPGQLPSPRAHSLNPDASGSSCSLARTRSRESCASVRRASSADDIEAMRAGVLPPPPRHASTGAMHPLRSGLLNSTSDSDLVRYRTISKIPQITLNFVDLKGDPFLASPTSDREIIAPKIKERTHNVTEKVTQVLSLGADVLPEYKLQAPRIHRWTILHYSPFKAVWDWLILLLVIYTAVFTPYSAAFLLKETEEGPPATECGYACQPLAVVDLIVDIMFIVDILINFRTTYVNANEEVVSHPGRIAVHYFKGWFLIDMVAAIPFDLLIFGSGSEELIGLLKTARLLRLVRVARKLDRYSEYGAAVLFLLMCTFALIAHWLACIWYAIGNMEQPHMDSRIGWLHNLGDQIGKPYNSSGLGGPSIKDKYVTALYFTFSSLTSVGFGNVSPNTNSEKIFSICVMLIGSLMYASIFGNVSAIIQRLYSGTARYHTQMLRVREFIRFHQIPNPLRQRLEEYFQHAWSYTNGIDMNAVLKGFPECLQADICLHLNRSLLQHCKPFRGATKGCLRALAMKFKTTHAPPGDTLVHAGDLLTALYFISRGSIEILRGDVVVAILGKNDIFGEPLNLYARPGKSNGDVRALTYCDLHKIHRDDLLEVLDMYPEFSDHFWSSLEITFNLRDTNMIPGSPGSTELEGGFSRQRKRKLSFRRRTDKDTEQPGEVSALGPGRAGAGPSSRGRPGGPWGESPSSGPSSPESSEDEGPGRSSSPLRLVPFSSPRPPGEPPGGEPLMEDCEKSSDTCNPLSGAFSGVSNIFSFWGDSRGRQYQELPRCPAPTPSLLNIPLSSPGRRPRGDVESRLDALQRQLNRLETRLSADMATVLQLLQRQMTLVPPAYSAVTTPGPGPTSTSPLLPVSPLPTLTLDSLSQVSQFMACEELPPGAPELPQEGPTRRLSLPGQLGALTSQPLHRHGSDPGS
[3] abbreviates: A. baumannii (n=100) clinical isolates.

The structures appear in SMILES notation. ≈ marks a conversion by molar mass, not a printed value. Where two headings read alike, the source gives them in different places.

For orientation: MIC means the least concentration at which growth counts as inhibited. For orientation: MIC50 means an inhibitory concentration at the 50% level, which refers to growth in some studies and to a panel of isolates in others. In general, MIC90 refers to an inhibitory concentration at the 90% level, which refers to growth in some studies and to a panel of isolates in others. High values mean lower susceptibility, low ones higher susceptibility. As to `Cc1c(CN(C)C(=O)/C=C/c2cnc3c(c2)CC[C@H](N)C(=O)N3)oc2ccccc12` [fabimycin], in the data set on S. aureus ATCC 29213, the frequency of resistance was 1.8 × 10^–10 to 5.2 × 10^–10. The “mutant prevention concentration (MPC)” value in the data set with S. aureus ATCC 29213 was found to be 0.125 µg/mL. The MIC in data set [1] (ATCC 1593 / VRE) was 128 µg/mL (≈ 316 µM); in data set [1] (ATCC 1768 / VRE), more than 128 µg/mL; in data set [1] (ATCC 2059 / VRE, VRE ATCC 2059, read-out: MIC) it was 64 µg/mL (≈ 158 µM); in data set [1] (ATCC 2431 / VRE), more than 128 µg/mL; in data set [1] (ATCC 2574 / VRE) it was more than 128 µg/mL; in data set [1] (ATCC 3053 / VRE, VRE ATCC 3053, read-out: MIC), 64 µg/mL (≈ 158 µM). Besides, the MIC in data set [1] (ATCC 3183 / VRE, VRE ATCC 3183, read-out: MIC) is 64 µg/mL (≈ 158 µM); in data set [1] (ATCC 3190 / VRE) it was more than 128 µg/mL; in data set [1] (ATCC 3191 / VRE), 128 µg/mL (≈ 316 µM); in data set [1] (ATCC 29212 / VRE) it was 128 µg/mL (≈ 316 µM); in data set [2] (the 1 pan-resistant strain of the 100 A. baumannii clinical isolates), 1 µg/mL (≈ 2.47 µM). Further, the “lysis of human red blood cells” value in the data set on human red blood cells is “nonhemolytic”. This compound also had an MIC50 in data set [2] (setting [3]) of 4 µg/mL (≈ 9.89 µM). The same compound showed an MIC90 in data set [2] (setting [3]) of 8 µg/mL (≈ 19.8 µM). Moreover, the “activity against the hERG ion channel” value at hERG ion channel was “lower activity against the hERG ion channel relative to both Debio-1452 and Debio-1452-NH3”.
